In patent US20240150339A1, “Compounds and Their Use as PDE4 Activators” (Mironid Limited, priority 2021, published 2024):

Tested on: m-IMCD3 cells
Test: Inhibition of PGE2-stimulated in vitro cyst formation in 3D culture of m-IMCD3 cells
Assay type: cell-based, mouse
Details: Mus musculus, mIMCD3, 144 h; 10 μM test compound; mean cyst area (%) compared to 100% for (DMSO + PGE2) and 0% for DMSO control; 100 nM PGE2; 6 days; read-out: % Cyst area after incubation with 10 μM test compound
Method: HEK 293 and MDCK cells (Public Health England, Cell Culture Collections) were maintained in Dulbecco's Modified Eagle's Medium (DMEM) supplemented with 10% (v/v) fetal bovine serum (FBS) (Seralab), 2 mM L-glutamine and 100 U/ml penicillin streptomycin cocktail (ThermoFisher); termed complete media. Clonal HEK 293 cell lines were maintained in complete media supplemented with 0.6 mg/mL G418 (Enzo Life Sciences). Mouse inner medullary collecting duct (m-IMCD3) cells [American Type Culture Collection (ATCC)] were maintained in media consisting of DMEM/Hams F-12 50/50 Mix (DMEM F12; Corning) supplemented with penicillin streptomycin cocktail (100 U/ml) and FBS (10% v/v) (DMEM F12-10% FBS).
The mouse Inner Medullary Collecting Duct cell line (m-IMCD3) spontaneously forms cystic spheroids in 3D culture with a Type 1 collagen/Matrigel extracellular matrix. This process can be stimulated with agents which raise intracellular cAMP, such as PGE2, and is used as an in vitro model for the formation of cystic structures in the kidneys of patients with ADPKD.
Rat Collagen I (Fisher Scientific) is prepared on ice by neutralising with 1M NaOH and diluting with a 2×volume of DMEM/F12+10% FBS for coating plate (coating mix) and a 2.2 volume of DMEM/F12+10% FBS for cell plating (plating mix). This is mixed 1:1.1 with ice cold Matrigel (Corning) for coating plates (coating mix), and 1:0.95 with Matrigel for cell plating (plating mix).
The assay is conducted in the wells of a 96-well plate culture dish using a total volume of 130 μl of collagen/Matrigel/DMEM F12-10% FBS suspension in growth media for each matrix plug per individual well. Initially, 30 μl of collagen/Matrigel/DMEM F12-10% FBS (coating mix) is added into the well of a 96 well plate and the collagen is set to a gel by incubating at 37° C. for at least 15 minutes. A second layer of 100 μl collagen/Matrigel suspension (plating mix) containing m-IMCD3 cells (2.75×10^6 m-IMCD3 cells per 96-well plate) is layered over the coating mix and the collagen/Matrigel/cell mix again set to a gel by incubating at 37° C. Cell cultures are maintained at 37° C. in an atmosphere of 5% CO2, 95% air.
Between 18 and 24h after plating, test compound(s) as DMSO stock solutions [0.1% (v/v) final DMSO concentration] and PGE2 (100 nM final concentration) in DMEM F12-10% FBS are added in quadruplicate wells per condition. Media, togetherwith the test compound and PGE2 are replenished after 2 or 3 days. After 6 days of culture z stack images of the wells are captured using the Nikon Eclipse Ti2-E microscope. Nikon General Analysis software is used to measure the following parameters in each well: the mean cyst area, the number of cysts, and the total cyst area.
PDE4 long form activators inhibited in vitro cyst formation in m-IMCD3 cells. Data are shown in FIG. 2 and Table 5 as mean cyst area (%), compared to 100% for (DMSO+PGE2) and 0% for DMSO control.

Compound	activity at 10 µM [%]
CCN1CCN(c2nc3c(OC)cc(C(=O)NC4CCCC4)cc3s2)CC1 [Example 222, N-cyclopentyl-2-(4-ethylpiperazin-1-yl)-4-methoxybenzo[d]thiazole-6-carboxamide]	1
COc1cc2nc(N3CCNCC3)sc2cc1C(=O)N[C@H]1CCc2ccccc21 [Example 224, (S)-N-(2,3-dihydro-1H-inden-1-yl)-5-methoxy-2-(piperazin-1-yl)benzo[d]thiazole-6-carboxamide]	8
Cc1cc(C(=O)N[C@H]2CCOc3ccccc32)c(C)c2sc(C3CCNCC3)nc12 [Example 230, (S)-N-(chroman-4-yl)-4,7-dimethyl-2-(piperidin-4-yl)benzo[d]thiazole-6-carboxamide]	25
CN1CCC(c2nc3c(Cl)cc(C(=O)NC4CCCC4)cc3s2)CC1 [Example 231, 4-chloro-N-cyclopentyl-2-(1-methylpiperidin-4-yl)benzo[d]thiazole-6-carboxamide]	1
CC(C)NC(=O)c1cc(C2CC2)c2nc(C3CCNCC3)sc2c1 [Example 232, 4-cyclopropyl-N-isopropyl-2-(piperidin-4-yl)benzo[d]thiazole-6-carboxamide]	-2
O=C(NC1CCC1)c1cc(Cl)c2nc(N3CCNCC3)sc2c1 [Example 234, 4-chloro-N-cyclobutyl-2-(piperazin-1-yl)benzo[d]thiazole-6-carboxamide]	3
O=C(NC1CCCC1)c1cc(Br)c2nc(N3C4CCC3CNC4)sc2c1 [Example 237, 2-(3,8-diazabicyclo[3.2.1]octan-8-yl)-4-bromo-N-cyclopentylbenzo[d]thiazole-6-carboxamide]	11
O=C(NC1CCC(F)(F)CC1)c1ccc2nc(N3C4CCC3CN(CCCO)C4)sc2c1 [Example 243, N-(4,4-difluorocyclohexyl)-2-(3-(3-hydroxypropyl)-3,8-diazabicyclo[3.2.1]octan-8-yl)benzo[d]thiazole-6-carboxamide]	6
CC(CO)c1cc(C(=O)NC2CCCC2)cc2sc(N3C4CCC3CNC4)nc12 (stereo not shown) [Example 249, N-cyclopentyl-2-(3,8-diazabicyclo[3.2.1]octan-8-yl)-4-(1-hydroxypropan-2-yl)-benzo[d]thiazole-6-carboxamide]	9
O=C(NC1CCCC1)c1ccc2nc(N3CC4(CNC4)C3)sc2c1 [Example 255, N-cyclopentyl-2-(2,6-diazaspiro[3.3]heptan-2-yl)benzo[d]thiazole-6-carboxamide]	11
O=C(NC1CCCC1)c1ccc2nc(N3CCCC4NCCC43)sc2c1 (stereo not shown) [Example 258, N-cyclopentyl-2-(octahydro-4H-pyrrolo[3,2-b]pyridin-4-yl)benzo[d]thiazole-6-carboxamide]	11
CN1C[C@@H]2CN(c3nc4ccc(C(=O)NC5CCCCC5)cc4s3)C[C@@H]2C1 [Example 261, N-cyclohexyl-2-((3aR,6aS)-5-methylhexahydropyrrolo[3,4-c]pyrrol-2 (1H)-yl)benzo[d]thiazole-6-carboxamide]	3
CN(C(=O)c1ccc2nc(C3CCNCC3)sc2c1)C1CCCC1 [Example 271, N-cyclopentyl-N-methyl-2-(piperidin-4-yl)benzo[d]thiazole-6-carboxamide]	27
CN1CCC(c2nc3ccc(C(=O)N[C@@H]4CCC[C@H]4O)cc3s2)CC1 [Example 274, N-[(1R,2R)-2-hydroxycyclopentyl]-2-(1-methylpiperidin-4-yl)benzo[d]thiazole-6-carboxamide]	16
CCN1CCC(c2nc3ccc(C(=O)NCc4ccncc4)cc3s2)CC1 [Example 275, 2-(1-ethylpiperidin-4-yl)-N-(pyridin-4-ylmethyl)benzo[d]thiazole-6-carboxamide]	-2
CC(C)OCCNC(=O)c1ccc2nc(N3C4CCC3CNC4)sc2c1 [Example 278, 2-(3,8-diazabicyclo[3.2.1]octan-8-yl)-N-(2-isopropoxyethyl)benzo[d]thiazole-6-carboxamide]	18
CCN1CC(c2nc3ccc(C(=O)NC4CCCC4)cc3s2)C1 [Example 281, N-cyclopentyl-2-(1-ethylazetidin-3-yl)benzo[d]thiazole-6-carboxamide]	10
O=C(NC1CCCC1)c1ccc2sc(C3CCNCC3)nc2c1 [Example 283, N-cyclopentyl-2-(piperidin-4-yl)benzo[d]thiazole-5-carboxamide]	14
CN1CCC(c2nc3ccc(S(=O)(=O)NC4CCCC4)cc3s2)CC1 [Example 288, N-cyclopentyl-2-(1-methylpiperidin-4-yl)benzo[d]thiazole-6-sulfonamide]	11

Target: T1, PDE4D5 (Homo sapiens, UniProt Q08499)
T1 construct: Using Full-Length Human PDE4 Isoforms: Long Forms PDE4D5, PDE4C3, PDE4B1 and Short Form PDE4B2; made in house; cytosol fraction of the cell lysate, not purified
Test: PDE assay, activation of full-length human PDE4D5 long form ([3H]cAMP radio-assay)
Assay type: biochemical
Details: 30 μM test compound; mean % increase in counts over basal activity
Excerpt: Experiment 1: Measurement of Modulation of Enzyme Activity by PDE4 Long Form Activators of the Present Invention Using Full-Length Human PDE4 Isoforms: Long Forms PDE4D5, PDE4C3, PDE4B1 and Short Form PDE4B2
(Marchmont, R. J. and Houslay, M. D. Biochem. J. 187: 381-92, 1980)
For transient transfection of exogenous PDE4 long isoforms, HEK 293 cells were transfected with pcDNA3.1 or pDEST™ PDE4 expression vectors using Lipofectamine LTX/Plus reagent (Invitrogen) as outlined by the manufacturer.
Where stable cell lines were generated the clonal isolates were expanded to obtain cell lines that stably expressed the full-length human PDE4 long isoforms and the full length human PDE4B2 short isoform. These were called the HEK-PDE4D5, HEK-PDE4B1 and HEK-PDE4B2 cell lines, respectively.
HEK-PDE4D5 cells were seeded out in 100 mm plates and incubated at 37° C. in an atmosphere of 5% CO2, 95% air. Cell lysates were prepared using KHEM buffer [50 mM KCl, 10 mM EGTA, 50 mM HEPES (pH 7.2), 1.92 mM MgCl2].
To prepare the cell lysates, the 100 mm plates containing the cells were placed on ice and washed with ice-cold PBS (phosphate buffered saline, pH 7.4). KHEM buffer (500 μl) was added to the cells. Cells were then scraped off the plate and triturated using a needle (BD Microlance™ 0.8, 40 mm). The lysed cells were then centrifuged at 2000 rpm for 10 minutes to remove cell debris and the supernatant (cell lysate containing recombinant PDE4D5) was transferred to a fresh tube and kept on ice.
The cell lysate containing recombinant PDE4D5 was transferred into a centrifuge tube and placed into an ultracentrifuge (BECKMAN COULTER) and spun at high speed (100,000 g) for 30 minutes at 4° C. The cytosol fraction was then collected and its protein amount determined using a BCA protein assay.
PDE assays were performed in thin walled V-bottomed 96-well plates. The assays were performed at a final concentration of 10 mM Tris/5 mM MgCl2 μlus PDE4D5 cell lysate cytosol fraction, containing over-expressed PDE4D5, with and without test compound. The lysate/compound mix were incubated together for 15 min at room temperature on an orbital shaker prior to addition of [^3H] cAMP (final concentration 1 μM [^3H] cAMP; Perkin Elmer) to a final volume of 50 μl per reaction. The reactions were then incubated for 10 minutes at 30° C., terminated by heating for 2 min at 95° C. and allowed to cool. Snake venom (12.5 μl of 1 mg/ml; Crotalus atrox, Sigma) was then added and the plates were agitated and incubated for a further 15 minutes at 30° C. Dowex ion exchange resin (Sigma, chloride form, 200-400 mesh; 200 μl; prepared as a 1:1 Dowex: water stock, thoroughly re-suspended and diluted 2:1 with ethanol) was then added to each well and the plates incubated for 15 min at room temperature on an orbital shaker ensuring sufficient agitation for resin suspension (550 RPM). The reaction mixture was then transferred to a 96 well filter plate (Millipore; […] pore size) and filtered into a receiving 96-well plate to remove the dowex suspension. 30 μL of the filtered solution was then transferred to the wells of an Opti-plate (Perkin Elmer) 96 well assay plate and 120 μl of Microscint 40 scintillation fluid was added. The plate was then placed on an orbital shaker for 10 min at high speed (900 RPM) to mix the sample with scintillation fluid prior to quantitation using a plate based scintillation counter (Top-Count).
The % increase in counts in the presence of test compound at a particular concentration indicates the % increase in enzyme activity at that concentration.

T1 sequence (Q08499 1-745 isoform Q08499-6): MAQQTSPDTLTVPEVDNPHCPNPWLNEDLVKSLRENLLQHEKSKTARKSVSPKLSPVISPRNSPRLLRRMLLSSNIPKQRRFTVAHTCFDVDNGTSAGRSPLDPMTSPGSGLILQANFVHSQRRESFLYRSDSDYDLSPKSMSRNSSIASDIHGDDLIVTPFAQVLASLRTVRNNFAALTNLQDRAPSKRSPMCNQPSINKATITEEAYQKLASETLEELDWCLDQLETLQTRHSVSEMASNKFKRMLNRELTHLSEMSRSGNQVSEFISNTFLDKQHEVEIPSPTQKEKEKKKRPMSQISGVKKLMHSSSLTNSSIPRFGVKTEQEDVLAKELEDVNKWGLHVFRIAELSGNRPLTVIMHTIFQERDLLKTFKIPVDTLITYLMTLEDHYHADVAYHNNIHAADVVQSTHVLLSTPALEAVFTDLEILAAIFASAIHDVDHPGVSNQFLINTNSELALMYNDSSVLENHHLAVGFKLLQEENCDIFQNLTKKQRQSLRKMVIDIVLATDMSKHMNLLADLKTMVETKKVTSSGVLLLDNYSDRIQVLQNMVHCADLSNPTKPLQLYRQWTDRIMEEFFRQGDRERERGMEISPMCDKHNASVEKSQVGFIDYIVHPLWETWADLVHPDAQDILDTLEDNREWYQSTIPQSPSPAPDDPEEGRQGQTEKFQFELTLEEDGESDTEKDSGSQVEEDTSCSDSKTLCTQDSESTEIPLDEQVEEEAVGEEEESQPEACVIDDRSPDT

activation at 30 µM [%]	Compound
82	O=C(N[C@H]1CCCc2ccccc21)c1ccc2nc(-c3cccnc3)sc2c1 [Example 8, (S)-2-(pyridin-3-yl)-N-(1,2,3,4-tetrahydronaphthalen-1-yl)benzo[d]thiazole-6-carboxamide]
78	Cc1ccc(-c2nc3ccc(C(=O)NCc4ccccc4)cc3s2)cn1 [Example 10, N-benzyl-2-(6-methylpyridin-3-yl)benzo[d]thiazole-6-carboxamide]
104	Cc1ccc(-c2nc3ccc(C(=O)NCc4ccc(Cl)cc4)cc3s2)cn1 [Example 11, N-(4-chlorobenzyl)-2-(6-methylpyridin-3-yl)benzo[d]thiazole-6-carboxamide]
